The text below walks through data of patent publication EP4527906A1, “OXIDATION RESISTANT COMPOSITIONS OF DINAHYDROHEXITOLS CONTAINING BENZOPHENONE OR ITS DERIVATIVES” (ROQUETTE FRERES, priority 2023, dated 2025).

Holding throughout (format): physicochemical
Data set [1] can be described thus: PetroOxy test: induction time (resistance to oxidation). The source says: The resistance of compositions according to the invention to oxidation may indeed be characterized by this measurement called the "PetroOxy test" which consists in measuring over time the pressure inside a cell loaded with a sample of composition exposed to an initial pressure of dioxygen and a constant temperature. The protocol of this test is described below after.
(§1) The method hereafter is described for isosorbide as the chemical compound having at least one heterocycle, and is also applicable to any chemical compound having at least one heterocycle.
3 grams of a purified 50 wt% dry matter isosorbide solution in distilled water with or without the addition of antioxidant are weighed precisely in a glass cup and then placed in the hermetic enclosure of the measuring device "PetroOxy" model 13-3002 from Petrotest, now Anton Paar GmbH. The air present in the cell is purged 3 times at room temperature with pure oxygen via a pressurized cylinder (Alphagas, purity >99.5%). The temperature and working pressure of pure oxygen is then set at 120°C and 700 kPa (7 bars) of oxygen. The pressure is continuously monitored during the experiment. The decrease in pressure in the test chamber is due to oxygen consumption during oxidation reactions of the sample studied. The variation in relative pressure during the experiment makes it possible to determine the time after which the sample begins its degradation by oxidation, which is called induction time, also referred as "OIT", under the test conditions.
The induction time of the sample is determined as follows:
The relative pressure of oxygen consumption is given by the relation (Pmax -Pt)/Pmax. Pmax is the maximum pressure attained by the system during the measurement, corresponding to the maximum pressure at the beginning of time, and Pt is the pressure as a function of time when oxygen is consumed. The induction time of the sample is given by the inflection point of the oxygen consumption curve, i.e. the intersection of the two linear domains as shown on figure Fig.1.
The longer the induction time, the greater the oxidation resistance of the sample. To calculate precisely this parameter, a calculation method by linear regression between the two-line segments before and after the inflection point is performed.

Data set [2] in a line: Yellow coloration index measurement (ASTM E313), before thermal treatment. The settings on record: isosorbide solution with 100 ppm antioxidant, measured as a liquid at 65°C. How it is done: (§2) The yellow coloration index, expressed in YID units, was measured using a Colorflex EZ from Hunterlab according to ASTM E313. The spectrophotometer is a sealed optics, 256-elements diode array, having a 400-700 nm spectral range and a high-resolution concave holographic grating. 55 grams of composition are placed at 65°C, in a 64 mm diameter cylindric cell including a ring and white disk cap. The coloration of the composition was measured as a liquid at 65°C.

A short description of data set [3]: Thermal treatment test: yellow coloration index after heating. The settings on record: for Yellow coloration index After-Before: difference after minus before thermal test, 100 ppm antioxidant; for Yellow coloration index after thermal test: isosorbide solution with 100 ppm antioxidant, 245°C for 40 minutes under nitrogen. The method, then:
as §2, §1
The thermal stability of compositions of isosorbide, was studied according to the following protocol: 70 g of a 80 wt% solution of isosorbide in water was placed in a three-necked round flask and inerted with high purity nitrogen (purity >99.9%) during 10 minutes at a flowrate of around 2000 mL/min. The product was then heated at 245°C using an oil bath for 40 minutes under a 500 mL/min nitrogen flowrate. Then the product was cooled down to 80°C under the same nitrogen flowrate and yellow coloration measurement (YID value) was measured immediately.
Coloration before and after "thermal treatment" as well as their difference is related to the product thermal stability, i.e. to the sensitivity of the product to oxidation.

Where [4] appears, read: isosorbide aqueous solution with 100 ppm antioxidant, 120°C and 7 bars of oxygen.
Setting [5] is: listed as 4,4'-dihydroxy-benzophenone.

As to `O=C(c1ccccc1)c1ccccc1` [Sample 2.1, Benzophenone], the “% versus no antioxidant” value in data set [1] (change of induction time versus isosorbide solution without antioxidant (3.5 h), 100 ppm antioxidant) is “about 9%”. The “Induction time” value in data set [1] (setting [4]) is 3.8 h. In addition, the “Yellow coloration index before thermal test” value in data set [2] turned out to be 1.3 YID. Also, in data set [3], the “Yellow coloration index After-Before” value came to 6.4 YID and the “Yellow coloration index after thermal test” value is 7.7 YID. For the same compound, in data set [3] (listed as benzophenone), the “Yellow coloration index after thermal test” value is “lower than 10 YID”.

Take `O=C(c1ccc(O)cc1)c1ccc(O)cc1` [Sample 2.2, 4,4'-dihydroxy-benzophenone]: in data set [1] (setting [4]), the “Induction time” value amounted to 3.9 h. Also, the “Yellow coloration index before thermal test” value is given as 4.2 YID in data set [2] and “lower than 10 YID” in data set [2] (setting [5]). The “Yellow coloration index After-Before” value in data set [3] is recorded as 5.1 YID. Also, the entries for the “Yellow coloration index after thermal test” value in data set [3] and in data set [3] (setting [5]) were 9.3 YID and “lower than 10 YID”, respectively.

Regarding `COc1ccc(C(=O)c2ccccc2)c(O)c1` [Sample 2.3, 2-hydroxy-4-methoxybenzophenone], in data set [1] (setting [4]), the “Induction time” value was determined as 4.6 h. In data set [1] (isosorbide aqueous solution with 100 ppm antioxidant, 120°C and 7 bars of oxygen, listed as 2-hydroxy-4-methoxy benzophenone), the “Induction time (hours)” value is listed as “around 4,6 hours”. The “Yellow coloration index before thermal test” value in data set [2] worked out at 2.2 YID. In data set [3], the “Yellow coloration index After-Before” value is reported as 3.9 YID and the “Yellow coloration index after thermal test” value worked out at 6.1 YID. Further, in data set [3] (listed as 2-hydroxy-4-methoxy-benzophenone), the “Yellow coloration index after thermal test” value is “below 7 YID”.

For the compound `COc1ccc(C(=O)c2ccccc2O)c(O)c1` [Sample 2.4, 2,2'-dihydroxy-4-methoxybenzophenone], the “Induction time” value in data set [1] (setting [4]) worked out at 5.2 h. Further, in data set [2], the “Yellow coloration index before thermal test” value came to 12.3 YID. In data set [3], the “Yellow coloration index After-Before” value came to 37 YID and the “Yellow coloration index after thermal test” value is reported as 49.3 YID.

Take `CCCOC(=O)c1cc(O)c(O)c(O)c1` [Sample 3, Propyl gallate, reference compound]: in data set [2], the “Yellow coloration index before thermal test” value stood at 9.1 YID. Besides, in data set [3], the “Yellow coloration index After-Before” value amounted to 5.2 YID and the “Yellow coloration index after thermal test” value turned out to be 14.3 YID.
